Assay results: patent publication US10532995B2, “Substituted pyrazole compounds as serine protease inhibitors” (VERSEON CORPORATION, priority 2015, dated 2020)
Counter-ions that a name gives are not always drawn.

The compounds below were run against T1, Human thrombin (Homo sapiens, UniProt P00734) (assay: Thrombin protease activity inhibition, chromogenic substrate S-2238). Conditions: 3 nM thrombin, 125 μM S-2238, 10 min pre-incubation, RT.
T1 construct: purchased Haematologic Technologies Inc
Format: biochemical
Method: The thrombin activity reported herein (e.g., Table A) was obtained as follows. […] Thrombin was assayed in buffer containing 0.05 M Tris (pH 7.4), 0.015 M NaCl and 0.01% PEG-8000. The final concentration of enzyme used was 3 nM thrombin. […] All assays were performed in 96-well microtiter plates at room temperature (RT). […] Inhibitor IC50 values were determined by adding test compound as ten point, three-fold serial dilutions in buffer solution, as known in the art. The plate was read at 10 minutes after substrate addition. The IC50 was calculated by plotting the percent (%) inhibition against compound concentration and fitting the data to a constrained four parameter sigmoidal curve, as known in the art.

For C=CCOC(=O)N1CCC(c2nn(C(=O)C(C)(C)C)c(NCc3ccc(Cl)s3)c2F)CC1 [Entry 263, prop-2-en-1-yl 4-(5-[(5-chlorothiophen-2-yl)methyl]amino-1-(2,2-dimethylpropanoyl)-4-fluoro-1H-pyrazol-3-yl)piperidine-1-carboxylate], which IC50 is on record?
The IC50 was < 0.1 µM.

For CC1(C(=O)n2nc(C3(C)CCNC3=O)cc2NCc2ccc(Cl)s2)CCOCC1 (stereo not drawn) [Entry 122, 3-(5-[(5-chlorothiophen-2-yl)methyl]amino-1-(4-methyloxane-4-carbonyl)-1H-pyrazol-3-yl)-3-methylpyrrolidin-2-one], which IC50 is on record?
The IC50 was 0.1 to 1 µM.

With C=CCOC(=O)N1CCC(c2nn(C(=O)C(C)(C)C)c(NCc3ccc(Cl)s3)c2C)CC1 [Entry 264, prop-2-en-1-yl 4-(5-[(5-chlorothiophen-2-yl)methyl]amino-1-(2,2-dimethylpropanoyl)-4-methyl-1H-pyrazol-3-yl)piperidine-1-carboxylate] as the compound, how does the IC50 read?
Its IC50 is < 0.1 µM.

Clc1ccc(CNc2cc(C3CCN(Cc4nnn[nH]4)CC3)n[nH]2)s1 [Entry 195, N-[(5-chlorothiophen-2-yl)methyl]-3-[1-(1H-1,2,3,4-tetrazol-5-ylmethyl)piperidin-4-yl]-1H-pyrazol-5-amine] was tested. Which IC50 did it give?
The IC50 was 1 to 10 µM.

Which IC50 does the source give for CS(=O)(=O)N1CCC(c2cc(NCc3ccc(Cl)s3)[nH]n2)CC1 [Entry 173, N-[(5-chlorothiophen-2-yl)methyl]-3-(1-methanesulfonylpiperidin-4-yl)-1H-pyrazol-5-amine] here?
The IC50 was > 100 µM.

For COc1ccccc1C(=O)n1nc(C2(C)CCCN2C(=O)OC(C)(C)C)cc1NCc1ccc(Cl)s1 (stereo not drawn) [Entry 272, tert-butyl 2-(5-[(5-chlorothiophen-2-yl)methyl]amino-1-(2-methoxybenzoyl)-1H-pyrazol-3-yl)-2-methylpyrrolidine-1-carboxylate], which IC50 is on record?
Its IC50 is 1 to 10 µM.

CS(=O)(=O)N1CCC(c2cc(NCc3ccc(Cl)s3)[nH]n2)C1 (stereo not drawn) [Entry 175, N-[(5-chlorothiophen-2-yl)methyl]-3-(1-methanesulfonylpyrrolidin-3-yl)-1H-pyrazol-5-amine] was tested. Which IC50 did it give?
The IC50 was > 100 µM.

CC(C)(C)C(=O)n1nc(C2CCN(C(=O)N3CCOCC3)CC2)c(C#N)c1NCc1ccc(Cl)s1 [Entry 140, 5-[(5-chlorothiophen-2-yl)methyl]amino-1-(2,2-dimethylpropanoyl)-3-[1-(morpholine-4-carbonyl)piperidin-4-yl]-1H-pyrazole-4-carbonitrile] was tested. Which IC50 did it give?
Its IC50 is < 0.1 µM.

CC(C)(C)OC(=O)N1CCC(c2cc(NCc3ccc(Cl)s3)n(C(=O)c3ccsc3)n2)CC1 [Entry 301, tert-butyl 4-(5-[(5-chlorothiophen-2-yl)methyl]amino-1-(thiophene-3-carbonyl)-1H-pyrazol-3-yl)piperidine-1-carboxylate] was tested. Which IC50 did it give?
The IC50 was < 0.1 µM.

How did the IC50 turn out when CN(C)C(=O)N1CCC(c2cc(NCc3ccc(Cl)s3)n(C(=O)N(C)C)n2)CC1 [Entry 136, 4-(5-[(5-chlorothiophen-2-yl)methyl]amino-1-(dimethylcarbamoyl)-1H-pyrazol-3-yl)-N,N-dimethylpiperidine-1-carboxamide] was run?
The IC50 was > 100 µM.

Which IC50 does the source give for CC1(c2cc(NCc3ccc(Cl)s3)n(C(=O)c3ccsc3)n2)CCCNC1 (stereo not drawn) [Entry 178, N-[(5-chlorothiophen-2-yl)methyl]-3-(3-methylpiperidin-3-yl)-1-(thiophene-3-carbonyl)-1H-pyrazol-5-amine] here?
The IC50 was 0.1 to 1 µM.

For CC1(C(=O)n2nc(C3(C)CCCNC3=O)cc2NCc2ccc(Cl)s2)CCOCC1 (stereo not drawn) [Entry 121, 3-(5-[(5-chlorothiophen-2-yl)methyl]amino-1-(4-methyloxane-4-carbonyl)-1H-pyrazol-3-yl)-3-methylpiperidin-2-one], which IC50 is on record?
The IC50 was 1 to 10 µM.

How did the IC50 turn out when C=CCOC(=O)N1CCN(C(=O)CN2CCOCC2)CC1c1cc(NCc2ccc(Cl)s2)n(C(=O)c2cscn2)n1 (stereo not drawn) [Entry 241, prop-2-en-1-yl 2-(5-[(5-chlorothiophen-2-yl)methyl]amino-1-(1,3-thiazole-4-carbonyl)-1H-pyrazol-3-yl)-4-[2-(morpholin-4-yl)acetyl]piperazine-1-carboxylate] was run?
The IC50 was 0.1 to 1 µM.

For CC(C)(C)OC(=O)N1CCCC(c2cc(NCc3ccc(Cl)s3)n(C(=O)C(C)(C)C)n2)C1 (stereo not drawn) [Entry 279, tert-butyl 3-(5-[(5-chlorothiophen-2-yl)methyl]amino-1-(2,2-dimethylpropanoyl)-1H-pyrazol-3-yl)piperidine-1-carboxylate], which IC50 is on record?
Its IC50 is < 0.1 µM.

How did the IC50 turn out when FC(F)(F)CN1CCC(c2cc(NCc3ccc(Cl)s3)[nH]n2)CC1 [Entry 198, N-[(5-chlorothiophen-2-yl)methyl]-3-[1-(2,2,2-trifluoroethyl)piperidin-4-yl]-1H-pyrazol-5-amine] was run?
Its IC50 is > 100 µM.

For CN1CCC(C)(C(=O)n2nc(C3CCN(C(=O)N4CCOCC4)CC3)cc2NCc2ccc(Cl)s2)CC1 [Entry 142, N-[(5-chlorothiophen-2-yl)methyl]-1-(1,4-dimethylpiperidine-4-carbonyl)-3-[1-(morpholine-4-carbonyl)piperidin-4-yl]-1H-pyrazol-5-amine; formic acid], which IC50 is on record?
Its IC50 is 0.1 to 1 µM.

How did the IC50 turn out when Clc1ccc(CNc2cc(C3CCCNCC3)n[nH]2)s1 (stereo not drawn) [Entry 125, 3-(azepan-4-yl)-N-[(5-chlorothiophen-2-yl)methyl]-1H-pyrazol-5-amine] was run?
Its IC50 is > 100 µM.

With CC(C)(C)C(=O)n1nc(C2(C)CCNC2=O)cc1NCc1ccc(Cl)s1 (stereo not drawn) [Entry 116, 3-(5-[(5-chlorothiophen-2-yl)methyl]amino-1-(2,2-dimethylpropanoyl)-1H-pyrazol-3-yl)-3-methylpyrrolidin-2-one] as the compound, how does the IC50 read?
The IC50 was < 0.1 µM.

Clc1ccc(CNc2cc(C3CCNC3)n[nH]2)s1 (stereo not drawn) [Entry 190, N-[(5-chlorothiophen-2-yl)methyl]-3-(pyrrolidin-3-yl)-1H-pyrazol-5-amine] was tested. Which IC50 did it give?
The IC50 was 1 to 10 µM.

How did the IC50 turn out when O=C(c1ccsc1)n1nc(C2CCCO2)cc1NCc1ccc(Cl)s1 (stereo not drawn) [Entry 183, N-[(5-chlorothiophen-2-yl)methyl]-3-(oxolan-2-yl)-1-(thiophene-3-carbonyl)-1H-pyrazol-5-amine] was run?
Its IC50 is < 0.1 µM.

Which IC50 does the source give for O=C(CN1CCOCC1)N1CCCC1c1cc(NCc2ccc(Cl)s2)[nH]n1 (stereo not drawn) [Entry 93, 1-[2-(5-[(5-chlorothiophen-2-yl)methyl]amino-1H-pyrazol-3-yl)pyrrolidin-1-yl]-2-(morpholin-4-yl)ethan-1-one] here?
The IC50 was > 100 µM.

How did the IC50 turn out when COc1ccccc1C(=O)n1nc(C2CCN(C(=O)OC(C)(C)C)CC2)cc1NCc1ccc(Cl)s1 [Entry 295, tert-butyl 4-(5-[(5-chlorothiophen-2-yl)methyl]amino-1-(2-methoxybenzoyl)-1H-pyrazol-3-yl)piperidine-1-carboxylate] was run?
Its IC50 is < 0.1 µM.

How did the IC50 turn out when CC(C)(C)C(=O)n1nc(C2CCN(Cc3ccccc3)CC2)cc1NCc1ccc(Cl)s1 [Entry 95, 1-[3-(1-benzylpiperidin-4-yl)-5-[(5-chlorothiophen-2-yl)methyl]amino-1H-pyrazol-1-yl]-2,2-dimethylpropan-1-one] was run?
Its IC50 is < 0.1 µM.

How did the IC50 turn out when Cc1c(C2CCNCC2)nn(C(=O)C(C)(C)C)c1NCc1ccc(Cl)s1 [Entry 89, 1-(5-[(5-chlorothiophen-2-yl)methyl]amino-4-methyl-3-(piperidin-4-yl)-1H-pyrazol-1-yl)-2,2-dimethylpropan-1-one; formic acid] was run?
The IC50 was 1 to 10 µM.

How did the IC50 turn out when COc1ccccc1C(=O)n1nc(C2CCCN2C(=O)OC(C)(C)C)cc1NCc1ccc(Cl)s1 (stereo not drawn) [Entry 273, tert-butyl 2-(5-[(5-chlorothiophen-2-yl)methyl]amino-1-(2-methoxybenzoyl)-1H-pyrazol-3-yl)pyrrolidine-1-carboxylate] was run?
Its IC50 is 1 to 10 µM.

O=C(c1ccccc1)n1nc(C2CCNCC2)cc1NCc1ccc(Cl)s1 [Entry 105, 1-benzoyl-N-[(5-chlorothiophen-2-yl)methyl]-3-(piperidin-4-yl)-1H-pyrazol-5-amine hydrochloride] was tested. Which IC50 did it give?
The IC50 was 0.1 to 1 µM.

Which IC50 does the source give for CC1(c2cc(NCc3ccc(Cl)s3)n(C(=O)c3ccsc3)n2)CCCNC1=O (stereo not drawn) [Entry 123, 3-(5-[(5-chlorothiophen-2-yl)methyl]amino-1-(thiophene-3-carbonyl)-1H-pyrazol-3-yl)-3-methylpiperidin-2-one] here?
The IC50 was 0.1 to 1 µM.

For O=C(C1CCCCC1)n1nc(C2CCNCC2)cc1NCc1ccc(Cl)s1 [Entry 169, N-[(5-chlorothiophen-2-yl)methyl]-1-cyclohexanecarbonyl-3-(piperidin-4-yl)-1H-pyrazol-5-amine hydrochloride], which IC50 is on record?
Its IC50 is > 100 µM.

With C=CCOC(=O)N1CC(c2cc(NCc3ccc(Cl)s3)[nH]n2)C1 [Entry 258, prop-2-en-1-yl 3-(5-[(5-chlorothiophen-2-yl)methyl]amino-1H-pyrazol-3-yl)azetidine-1-carboxylate] as the compound, how does the IC50 read?
Its IC50 is 10 to 100 µM.

Which IC50 does the source give for FC(F)(CN1CCC(c2cc(NCc3ccc(Cl)s3)[nH]n2)CC1)c1ccccn1 [Entry 222, N-[(5-chlorothiophen-2-yl)methyl]-3-1-[2,2-difluoro-2-(pyridin-2-yl)ethyl]piperidin-4-yl-1H-pyrazol-5-amine] here?
Its IC50 is > 100 µM.

Which IC50 does the source give for C=CCOC(=O)N1CCN(C(=O)CN2CCOCC2)CC1c1cc(NCc2ccc(Cl)s2)n(C(=O)C(C)(C)C)n1 (stereo not drawn) [Entry 245, prop-2-en-1-yl 2-(5-[(5-chlorothiophen-2-yl)methyl]amino-1-(2,2-dimethylpropanoyl)-1H-pyrazol-3-yl)-4-[2-(morpholin-4-yl)acetyl]piperazine-1-carboxylate] here?
Its IC50 is 1 to 10 µM.

Which IC50 does the source give for C=CCOC(=O)N1CCC(c2nn(C(=O)c3cscn3)c(NCc3ccc(Cl)s3)c2C)CC1 [Entry 270, prop-2-en-1-yl 4-(5-[(5-chlorothiophen-2-yl)methyl]amino-4-methyl-1-(1,3-thiazole-4-carbonyl)-1H-pyrazol-3-yl)piperidine-1-carboxylate] here?
The IC50 was < 0.1 µM.

O=C(C1CCCC1)n1nc(C2CCNCC2)cc1NCc1ccc(Cl)s1 [Entry 170, N-[(5-chlorothiophen-2-yl)methyl]-1-cyclopentanecarbonyl-3-(piperidin-4-yl)-1H-pyrazol-5-amine hydrochloride] was tested. Which IC50 did it give?
Its IC50 is > 100 µM.
